# Measured values from patent US20250122174A1 (Shenzhen Yuanli Shenwan Innovative Medicine Co., Ltd., priority 2022, published 2025).
# Target: HPK1 (Homo sapiens (Human), UniProt Q92918)
# Assay: HPK1 Inhibition Assay (ADP-Glo kinase assay)
# Format: biochemical
# Conditions: ATP 10 μM
# Method in brief: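 ADP-Glo luminescence read-out after 1 h room-temperature kinase reaction with 10 μM ATP and 0.1 μg/ml MBP. Recombinant human HPK1 at 7.5 ng/μl; buffer 40 mM Tris pH 7.5, 20 mM MgCl2. Compounds serially diluted 5-fold over 10 points from 10 mM DMSO stock.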
# Chain of HPK1 (Q92918 1-346 limits assumed): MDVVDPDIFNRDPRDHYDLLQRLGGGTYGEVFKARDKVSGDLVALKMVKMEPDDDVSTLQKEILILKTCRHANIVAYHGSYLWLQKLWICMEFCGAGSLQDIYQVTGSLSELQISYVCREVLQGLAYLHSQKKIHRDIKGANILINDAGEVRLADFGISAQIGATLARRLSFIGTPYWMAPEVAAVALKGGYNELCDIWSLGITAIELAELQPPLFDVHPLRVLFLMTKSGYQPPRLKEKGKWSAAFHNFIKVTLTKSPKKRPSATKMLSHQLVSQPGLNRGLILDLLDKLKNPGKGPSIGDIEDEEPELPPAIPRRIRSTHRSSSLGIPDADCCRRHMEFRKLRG
row,Compound,IC50 [nM]
1,"COc1cccc(F)c1-c1cccc(C(=O)Nc2cc(F)ccc2N2C[C@H]3C[C@@H]2CN3)c1F [Example 3, N-(2-((1R,4R)-2,5-diazabicyclo[2.2.1]heptan-2-yl)-5-fluorophenyl)-2,2′-difluoro-6′-methoxy-[1,1′-biphenyl]-3-carboxamide]",100 to 1000
2,"CC1(C)CN(c2c(NC(=O)c3ccc(=O)n(-c4c(F)cccc4F)n3)ccc3nn([C@H]4CCOC4)cc23)C[C@H]1N [Example 325, N-(4-((S)-4-amino-3,3-dimethylpyrrolidin-1-yl)-2-((S)-tetrahydrofuran-3-yl)-2H-indazol-5-yl)-1-(2,6-difluorophenyl)-6-oxo-1,6-dihydropyridazine-3-carboxamide]",< 100
3,"Cn1cc2c(N3CCC[C@@H](N)C3)c(NC(=O)c3ccc(=O)n(-c4c(F)cccc4F)n3)ccc2n1 [Example 176, (R)-N-(4-(3-aminopiperidin-1-yl)-2-methyl-2H-indazol-5-yl)-1-(2,6-difluorophenyl)-6-oxo-1,6-dihydropyridazine-3-carboxamide]",< 100
4,"CC(C)c1nc2c(N3C[C@H]4CNC[C@H]4C3)c(NC(=O)c3ccc(=O)n(-c4c(F)cccc4F)n3)ccc2n1C [Example 137, 1-(2,6-difluorophenyl)-N-(4-((3aR,6aS)-hexahydropyrrolo[3,4-c]pyrrol-2(1H)-yl)-2-isopropyl-1-methyl-1H-benzo[d]imidazol-5-yl)-6-oxo-1,6-dihydropyridazine-3-carboxamide]",< 100
5,"Cc1nc2c(N3CC(N)CC(F)(F)C3)c(NC(=O)c3ccc(=O)n(-c4c(F)cccc4F)n3)ccc2n1C (centres unmarked) [Example 96, N-(4-(5-amino-3,3-difluoropiperidin-1-yl)-1,2-dimethyl-1H-benzo[d]imidazol-5-yl)-1-(2,6-difluorophenyl)-6-oxo-1,6-dihydropyridazine-3-carboxamide]",< 100
6,"N[C@H]1CN(c2c(NC(=O)c3ccc(=O)n(-c4c(F)cccc4F)n3)ccc3c2cnn3[C@H]2CCCOC2)CC12CC2 [Example 271, N-(4-((R)-7-amino-5-azaspiro[2.4]heptan-5-yl)-1-((S)-tetrahydro-2H-pyran-3-yl)-1H-indazol-5-yl)-1-(2,6-difluorophenyl)-6-oxo-1,6-dihydropyridazine-3-carboxamide]",< 100
7,"C[C@H]1CN(c2c(NC(=O)c3ccc(=O)n(-c4c(F)cccc4F)n3)ccc3c2cnn3C2CC2)C[C@@H]1N [Example 299, N-(4-((3R,4S)-3-amino-4-methylpyrrolidin-1-yl)-1-cyclopropyl-1H-indazol-5-yl)-1-(2,6-difluorophenyl)-6-oxo-1,6-dihydropyridazine-3-carboxamide]",< 100
8,"C[C@@H]1CN(c2c(NC(=O)c3ccc(=O)n(-c4c(F)cccc4F)n3)ccc3c2nc(C2(C(F)(F)F)CC2)n3C)C[C@@H]1N [Example 148, N-(4-((3R,4R)-3-amino-4-methylpyrrolidin-1-yl)-1-methyl-2-(1-(trifluoromethyl)cyclopropyl)-1H-benzo[d]imidazol-5-yl)-1-(2,6-difluorophenyl)-6-oxo-1,6-dihydropyridazine-3-carboxamide]",< 100
9,"C[C@@H]1CN(c2c(NC(=O)c3ccc(=O)n(-c4c(F)cccc4F)n3)ccc3c2cnn3C2CC2)C[C@@H]1N [Example 298, N-[4-[(3R,4R)-3-amino-4-methyl-pyrrolidin-1-yl]-1-cyclopropyl-indazol-5-yl]-1-(2,6-difluorophenyl)-6-oxo-pyridazine-3-carboxamide]",< 100
10,"C[C@@H]1CN(c2c(NC(=O)c3ccc(=O)n(-c4c(F)cccc4F)n3)ccc3nn(C45CCC(CC4)CC5)cc23)C[C@@H]1N [Example 304, N-(4-((3R,4R)-3-amino-4-methylpyrrolidin-1-yl)-2-(bicyclo[2.2.2]octan-1-yl)-2H-indazol-5-yl)-1-(2,6-difluorophenyl)-6-oxo-1,6-dihydropyridazine-3-carboxamide]",< 100
11,"COc1cccc(F)c1-c1nccc(C(=O)Nc2ccc3c(nc(CS(C)(=O)=O)n3C)c2N2CC[C@@H](N)C2)c1F [Example 165, N-(4-((R)-3-aminopyrrolidin-1-yl)-1-methyl-2-((methylsulfonyl)methyl)-1H-benzo[d]imidazol-5-yl)-3-fluoro-2-(2-fluoro-6-methoxyphenyl)isonicotinamide]",< 100
12,"CC1(C)CN(c2c(NC(=O)c3ccc(=O)n(-c4c(F)cccc4F)n3)ccc3c2cnn3[C@@H]2CCOC2)C[C@H]1N [Example 268, N-(4-((S)-4-amino-3,3-dimethylpyrrolidin-1-yl)-1-((R)-tetrahydrofuran-3-yl)-1H-indazol-5-yl)-1-(2,6-difluorophenyl)-6-oxo-1,6-dihydropyridazine-3-carboxamide]",< 100
13,"COCCn1ncc2c(N3CC[C@@H](N)C3)c(NC(=O)c3ccc(=O)n(-c4c(F)cccc4F)n3)cc(F)c21 [Example 293, (R)-N-(4-(3-aminopyrrolidin-1-yl)-7-fluoro-1-(2-methoxyethyl)-1H-indazol-5-yl)-1-(2,6-difluorophenyl)-6-oxo-1,6-dihydropyridazine-3-carboxamide]",< 100
14,"COc1cccc(F)c1-c1cccc(C(=O)Nc2ccc3nn(C)cc3c2N2C[C@H]3C[C@@H]2CN3)[n+]1[O-] [Example 57, 2-((4-((1R,4R)-2,5-diazabicyclo[2.2.1]heptan-2-yl)-2-methyl-2H-indazol-5-yl)carbamoyl)-6-(2-fluoro-6-methoxyphenyl)pyridine 1-oxide]",< 100
15,"Cc1nc2c(N3CC4CNCC4C3)c(NC(=O)c3ccc(=O)n(-c4c(F)cccc4F)n3)ccc2n1C (centres unmarked) [Example 79, 1-(2,6-difluorophenyl)-N-(4-(hexahydropyrrolo[3,4-c]pyrrol-2(1H)-yl)-1,2-dimethyl-1H-benzo[d]imidazol-5-yl)-6-oxo-1,6-dihydropyridazine-3-carboxamide]",< 100
16,"CC(C)c1nc2c(N3CC[C@@H](NCC(C)(C)O)C3)c(NC(=O)c3ccc(=O)n(-c4c(F)cccc4F)n3)ccc2n1C [Example 129, (R)-1-(2,6-difluorophenyl)-N-(4-(3-((2-hydroxy-2-methylpropyl)amino)pyrrolidin-1-yl)-2-isopropyl-1-methyl-1H-benzo[d]imidazol-5-yl)-6-oxo-1,6-dihydropyridazine-3-carboxamide]",< 100
17,"CC(C)n1cc2c(N3CC[C@@H](CN)C3)c(NC(=O)c3ccc(=O)n(-c4c(F)cccc4F)n3)cc(F)c2n1 [Example 221, (S)-N-(4-(3-(aminomethyl)pyrrolidin-1-yl)-7-fluoro-2-isopropyl-2H-indazol-5-yl)-1-(2,6-difluorophenyl)-6-oxo-1,6-dihydropyridazine-3-carboxamide]",< 100

# Further lines, results first:
row,IC50 [nM],Compound
1,< 100,"Cc1nc2c(N3CCC4(CC3)CNC4)c(NC(=O)c3ccc(=O)n(-c4c(F)cccc4F)n3)ccc2n1C [Example 78, 1-(2,6-difluorophenyl)-N-(1,2-dimethyl-4-(2,7-diazaspiro[3.5]nonan-7-yl)-1H-benzo[d]imidazol-5-yl)-6-oxo-1,6-dihydropyridazine-3-carboxamide]"
2,< 100,"Cn1c(C2(C(F)(F)F)CC2)nc2c(N3C[C@H](N)C(C)(C)C3)c(NC(=O)c3ccc(=O)n(-c4c(F)cccc4F)n3)ccc21 [Example 147, (R)-N-(4-(4-amino-3,3-dimethylpyrrolidin-1-yl)-1-methyl-2-(1-(trifluoromethyl)cyclopropyl)-1H-benzo[d]imidazol-5-yl)-1-(2,6-difluorophenyl)-6-oxo-1,6-dihydropyridazine-3-carboxamide]"
3,< 100,"Cc1nc2c(N3C[C@H](N)C4(CC4)C3)c(NC(=O)c3ccc(=O)n(-c4c(F)cccc4F)n3)ccc2n1C1CCOCC1 [Example 151, 1-(2,6-difluorophenyl)-N-(4-[(7R)-7-amino-5-azaspiro[2.4]heptan-5-yl]-2-methyl-1-(3,4,5,6-tetrahydro-2H-pyran-4-yl)benzo[d]imidazol-5-yl)-6-oxo-1,2-diazine-3-carboxamide]"
4,< 100,"CC(C)c1nc2c(N3CC[C@](N)(C(F)(F)F)C3)c(NC(=O)c3ccc(=O)n(-c4c(F)cccc4F)n3)ccc2n1C (single isomer, unassigned) [Example 139]"
5,< 100,"C[C@@H]1CN(c2c(NC(=O)c3ccc(=O)n(-c4c(F)cccc4F)n3)ccc3nn(C45CC(C(F)(F)F)(C4)C5)cc23)C[C@@H]1N [Example 319, N-(4-((3R,4R)-3-amino-4-methylpyrrolidin-1-yl)-2-(3-(trifluoromethyl)bicyclo[1.1.1]pentan-1-yl)-2H-indazol-5-yl)-1-(2,6-difluorophenyl)-6-oxo-1,6-dihydropyridazine-3-carboxamide]"
6,< 100,"Cc1nc2c(N(C)[C@@H]3CCCNC3)c(NC(=O)c3ccc(=O)n(-c4c(F)cccc4F)n3)ccc2n1C [Example 70, (R)-1-(2,6-difluorophenyl)-N-(1,2-dimethyl-4-(methyl(piperidin-3-yl)amino)-1H-benzo[d]imidazol-5-yl)-6-oxo-1,6-dihydropyridazine-3-carboxamide]"
7,< 100,"CC(C)(C)n1cc2c(N3C[C@H](N)C4(CC4)C3)c(NC(=O)c3ccc(=O)n(-c4c(F)cccc4F)n3)ccc2n1 [Example 235, (R)-N-(4-(7-amino-5-azaspiro[2.4]heptan-5-yl)-2-(tert-butyl)-2H-indazol-5-yl)-1-(2,6-difluorophenyl)-6-oxo-1,6-dihydropyridazine-3-carboxamide]"
8,< 100,"CC(C)n1nc(Cl)c2c(N3C[C@@H](C)[C@@H](N)C3)c(NC(=O)c3ccc(=O)n(-c4c(F)cccc4F)n3)ccc21 [Example 191, N-(4-((3R,4R)-3-amino-4-methylpyrrolidin-1-yl)-3-chloro-1-isopropyl-1H-indazol-5-yl)-1-(2,6-difluorophenyl)-6-oxo-1,6-dihydropyridazine-3-carboxamide]"
9,< 100,"C[C@@H]1CN(c2c(NC(=O)c3ccc(=O)n(-c4c(F)cccc4F)n3)ccc3c2cnn3[C@H]2CCOC2)C[C@@H]1N [Example 255, N-(4-((3R,4R)-3-amino-4-methylpyrrolidin-1-yl)-1-((S)-tetrahydrofuran-3-yl)-1H-indazol-5-yl)-1-(2,6-difluorophenyl)-6-oxo-1,6-dihydropyridazine-3-carboxamide]"
